# Measured values taken from PubChem BioAssay (NCI).
#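 All cell lines were grown in 96-well plates and treated with compound for 48 hours. TGI marks complete inhibition of growth.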
# Tests used:
# Experiment in all cases: NCI anticancer screen, dose series, 48 h
# [1] = system: 786-0 renal
# [2] = system: A498 renal
# [3] = system: A549 NSCLC
# [4] = system: ACHN renal
# [5] = system: CAKI-1 renal
# [6] = system: CCRF-CEM leukemia
# [7] = system: COLO 205 colon
# [8] = system: DU-145 prostate
# [9] = system: EKVX NSCLC
# [10] = system: HCC-2998 colon
# [11] = system: HCT-15 colon
# [12] = system: HOP-62 NSCLC
# [13] = system: HOP-92 NSCLC
# [14] = system: HS 578T breast
# [15] = system: HT29 colon
# [16] = system: IGROV1 ovarian
# [17] = system: K-562 leukemia
# [18] = system: KM12 colon
# [19] = system: LOX IMVI melanoma
# [20] = system: M14 melanoma
# [21] = system: MALME-3M melanoma
# [22] = system: MCF7 breast
# [23] = system: MDA-MB-231 breast
# [24] = system: MDA-MB-435
# [25] = system: MDA-N
# [26] = system: MOLT-4 leukemia
# [27] = system: NCI-H226 lung
# [28] = system: NCI-H23 lung
# [29] = system: NCI-H460 lung
# [30] = system: NCI-H522 lung
# [31] = system: NCI/ADR-RES ovarian
# [32] = system: OVCAR-3 ovarian
# [33] = system: OVCAR-4 ovarian
# [34] = system: OVCAR-5 ovarian
# [35] = system: OVCAR-8 ovarian
# [36] = system: PC-3 prostate
# [37] = system: RPMI-8226 leukemia
# [38] = system: RXF 393 renal
# [39] = system: SF-268 CNS
# [40] = system: SF-295 CNS
# [41] = system: SF-539 CNS
# [42] = system: SK-MEL-2 melanoma
# [43] = system: SK-MEL-28 melanoma
# [44] = system: SK-MEL-5 melanoma
# [45] = system: SK-OV-3 ovarian
# [46] = system: SNB-19 CNS
# [47] = system: SNB-75 CNS
# [48] = system: SR leukemia
# [49] = system: SW-620 colon
# [50] = system: T-47D breast
# [51] = system: TK-10 renal
# [52] = system: U251 CNS
# [53] = system: UACC-257 melanoma
# [54] = system: UACC-62 melanoma
# [55] = system: UO-31 renal
# [56] = system: HCT-116 colon
# [57] = system: HL-60(TB) leukemia
# [58] = system: SN12C renal
smiles,measurement,setting,value
CN1C(=O)CC2CCCN2C1=O (configuration not stated),TGI,[1],> 100 µM
same,TGI,[2],> 100 µM
same,TGI,[3],> 100 µM
same,TGI,[4],> 100 µM
same,TGI,[5],> 100 µM
same,TGI,[6],> 100 µM
same,TGI,[7],> 100 µM
same,TGI,[8],> 100 µM
same,TGI,[9],> 100 µM
same,TGI,[10],> 100 µM
same,TGI,[11],> 100 µM
same,TGI,[12],> 100 µM
same,TGI,[13],> 100 µM
same,TGI,[14],> 100 µM
same,TGI,[15],> 100 µM
same,TGI,[16],> 100 µM
same,TGI,[17],> 100 µM
same,TGI,[18],> 100 µM
same,TGI,[19],> 100 µM
same,TGI,[20],> 100 µM
same,TGI,[21],> 100 µM
same,TGI,[22],> 100 µM
same,TGI,[23],> 100 µM
same,TGI,[24],> 100 µM
same,TGI,[25],> 100 µM
same,TGI,[26],> 100 µM
same,TGI,[27],> 100 µM
same,TGI,[28],> 100 µM
same,TGI,[29],> 100 µM
same,TGI,[30],> 100 µM
same,TGI,[31],> 100 µM
same,TGI,[32],> 100 µM
same,TGI,[33],> 100 µM
same,TGI,[34],> 100 µM
same,TGI,[35],> 100 µM
same,TGI,[36],> 100 µM
same,TGI,[37],> 100 µM
same,TGI,[38],> 100 µM
same,TGI,[39],> 100 µM
same,TGI,[40],> 100 µM
same,TGI,[41],> 100 µM
same,TGI,[42],> 100 µM
same,TGI,[43],> 100 µM
same,TGI,[44],> 100 µM
same,TGI,[45],> 100 µM
same,TGI,[46],> 100 µM
same,TGI,[47],> 100 µM
same,TGI,[48],> 100 µM
same,TGI,[49],> 100 µM
same,TGI,[50],> 100 µM
same,TGI,[51],> 100 µM
same,TGI,[52],> 100 µM
same,TGI,[53],> 100 µM
same,TGI,[54],> 100 µM
same,TGI,[55],> 100 µM
CC(C)[C@]12O[C@H]1[C@@H]1O[C@@]13[C@@]1(C)CCC4=C(COC4=O)[C@@H]1C[C@@H]1O[C@@]13C2=O,TGI,[2],0.0685 µM
same,TGI,[3],> 100 µM
same,TGI,[6],> 100 µM
same,TGI,[7],0.025 µM
same,TGI,[8],> 28.9 µM
same,TGI,[56],> 100 µM
same,TGI,[11],> 100 µM
same,TGI,[57],0.0249 µM
same,TGI,[12],0.115 µM
same,TGI,[13],0.0829 µM
same,TGI,[14],0.0882 µM
same,TGI,[15],> 100 µM
same,TGI,[16],> 100 µM
same,TGI,[17],> 100 µM
same,TGI,[18],> 22.6 µM
same,TGI,[19],> 100 µM
same,TGI,[20],0.0493 µM
same,TGI,[21],0.0541 µM
same,TGI,[22],> 100 µM
same,TGI,[23],0.834 µM
same,TGI,[24],0.0264 µM
same,TGI,[25],0.0265 µM
same,TGI,[26],0.3 µM
same,TGI,[28],< 0.0276 µM
same,TGI,[29],> 100 µM
same,TGI,[30],0.328 µM
same,TGI,[31],> 53.2 µM
same,TGI,[33],0.0621 µM
same,TGI,[34],> 100 µM
same,TGI,[35],> 100 µM
same,TGI,[36],2.11 µM
same,TGI,[37],0.063 µM
same,TGI,[38],< 0.0158 µM
same,TGI,[39],0.522 µM
same,TGI,[40],> 100 µM
same,TGI,[41],0.0428 µM
same,TGI,[42],0.0151 µM
same,TGI,[43],0.0397 µM
same,TGI,[44],0.0309 µM
same,TGI,[45],> 100 µM
same,TGI,[58],> 100 µM
same,TGI,[46],> 40.9 µM
same,TGI,[47],0.0444 µM
same,TGI,[49],> 42.1 µM
same,TGI,[50],> 100 µM
same,TGI,[51],> 100 µM
same,TGI,[52],> 78.7 µM
same,TGI,[53],0.0669 µM
same,TGI,[54],0.0312 µM
same,TGI,[55],> 100 µM
COc1cc(C(=O)NC(CCN)(c2ccccc2)c2ccccc2)cc(OC)c1OC,TGI,[1],> 31.6 µM
same,TGI,[2],17.5 µM
same,TGI,[3],> 31.6 µM
same,TGI,[4],> 31.6 µM
same,TGI,[5],87.6 µM
same,TGI,[7],19 µM
same,TGI,[8],> 31.6 µM
same,TGI,[9],> 31.6 µM
same,TGI,[10],19.8 µM
same,TGI,[56],> 95.3 µM
same,TGI,[11],> 31.6 µM
same,TGI,[57],18.5 µM
same,TGI,[12],> 31.6 µM
same,TGI,[13],25.5 µM
same,TGI,[14],> 92.6 µM
same,TGI,[15],28.3 µM
same,TGI,[16],> 31.6 µM
same,TGI,[17],23.1 µM
same,TGI,[18],> 31.6 µM
same,TGI,[19],> 31.6 µM
same,TGI,[20],19.1 µM
same,TGI,[21],18.4 µM
same,TGI,[22],> 31.6 µM
same,TGI,[23],> 31.5 µM
same,TGI,[24],> 31.6 µM
same,TGI,[25],> 100 µM
same,TGI,[26],21.5 µM
same,TGI,[27],98.9 µM
same,TGI,[28],> 31.6 µM
same,TGI,[29],> 31.6 µM
same,TGI,[30],> 100 µM
same,TGI,[31],> 100 µM
same,TGI,[32],> 100 µM
same,TGI,[33],> 31.6 µM
same,TGI,[34],> 100 µM
same,TGI,[35],> 31.6 µM
same,TGI,[36],> 100 µM
same,TGI,[38],27.6 µM
same,TGI,[39],> 31.6 µM
same,TGI,[40],> 31.6 µM
same,TGI,[41],> 100 µM
same,TGI,[42],> 100 µM
same,TGI,[43],21.4 µM
same,TGI,[44],18 µM
same,TGI,[45],> 31.6 µM
same,TGI,[58],> 31.6 µM
same,TGI,[46],> 100 µM
same,TGI,[47],30.4 µM
same,TGI,[48],24 µM
same,TGI,[49],> 31.6 µM
same,TGI,[50],> 31.6 µM
same,TGI,[51],> 31.6 µM
same,TGI,[52],> 100 µM
same,TGI,[53],22.3 µM
same,TGI,[54],> 31.6 µM
same,TGI,[55],> 64.4 µM
Cc1ccc(S(=O)(=O)N/N=C2\CC3C4C=CC3C2C4)cc1 (configuration not stated),TGI,[1],> 100 µM
same,TGI,[2],> 100 µM
same,TGI,[3],> 100 µM
same,TGI,[4],> 100 µM
same,TGI,[5],> 100 µM
same,TGI,[6],> 100 µM
same,TGI,[7],> 100 µM
same,TGI,[8],> 100 µM
same,TGI,[9],> 100 µM
same,TGI,[10],> 100 µM
same,TGI,[56],> 100 µM
same,TGI,[11],> 100 µM
same,TGI,[57],> 100 µM
same,TGI,[12],> 100 µM
same,TGI,[13],> 100 µM
same,TGI,[14],> 100 µM
same,TGI,[15],> 100 µM
same,TGI,[16],> 100 µM
same,TGI,[17],> 100 µM
same,TGI,[18],> 100 µM
same,TGI,[19],> 100 µM
same,TGI,[20],> 100 µM
same,TGI,[21],> 100 µM
same,TGI,[22],> 100 µM
same,TGI,[23],> 100 µM
same,TGI,[24],> 100 µM
same,TGI,[25],> 100 µM
same,TGI,[26],> 100 µM
same,TGI,[27],> 100 µM
same,TGI,[28],> 100 µM
same,TGI,[29],> 100 µM
same,TGI,[30],> 100 µM
same,TGI,[31],> 100 µM
same,TGI,[32],> 100 µM
same,TGI,[33],> 100 µM
same,TGI,[34],> 100 µM
same,TGI,[35],> 100 µM
same,TGI,[36],> 100 µM
same,TGI,[38],> 100 µM
same,TGI,[39],> 100 µM
same,TGI,[40],> 100 µM
same,TGI,[41],> 100 µM
same,TGI,[42],> 100 µM
same,TGI,[43],> 100 µM
same,TGI,[44],> 100 µM
same,TGI,[45],> 100 µM
same,TGI,[58],> 100 µM
same,TGI,[46],> 100 µM
same,TGI,[49],> 100 µM
same,TGI,[50],> 100 µM
same,TGI,[51],> 100 µM
same,TGI,[52],> 100 µM
same,TGI,[53],> 100 µM
same,TGI,[54],> 100 µM
same,TGI,[55],40.2 µM
C=C1OC(=O)[C@]2([C@@H](/C=C/C)C=CC(=O)[C@H]2O)[C@@H]1O,TGI,[1],> 100 µM
same,TGI,[3],> 100 µM
same,TGI,[4],> 100 µM
same,TGI,[5],> 100 µM
same,TGI,[6],> 100 µM
same,TGI,[7],> 100 µM
same,TGI,[8],> 100 µM
same,TGI,[9],> 100 µM
same,TGI,[10],> 100 µM
same,TGI,[56],> 100 µM
same,TGI,[11],> 100 µM
same,TGI,[57],> 100 µM
same,TGI,[12],> 100 µM
same,TGI,[14],> 100 µM
same,TGI,[15],> 100 µM
same,TGI,[16],> 100 µM
same,TGI,[17],> 100 µM
same,TGI,[18],> 100 µM
same,TGI,[19],> 100 µM
same,TGI,[20],> 100 µM
same,TGI,[21],> 100 µM
same,TGI,[22],> 100 µM
same,TGI,[23],> 100 µM
same,TGI,[24],> 100 µM
same,TGI,[25],> 100 µM
same,TGI,[26],> 100 µM
same,TGI,[27],> 100 µM
same,TGI,[28],> 100 µM
same,TGI,[29],> 100 µM
same,TGI,[30],> 100 µM
same,TGI,[31],> 100 µM
same,TGI,[32],> 100 µM
same,TGI,[33],> 100 µM
same,TGI,[34],> 100 µM
same,TGI,[35],> 100 µM
same,TGI,[36],> 100 µM
same,TGI,[37],> 100 µM
same,TGI,[38],> 100 µM
same,TGI,[39],> 100 µM
same,TGI,[40],> 100 µM
same,TGI,[41],> 100 µM
same,TGI,[42],> 100 µM
same,TGI,[43],> 100 µM
same,TGI,[44],> 100 µM
same,TGI,[45],> 100 µM
same,TGI,[58],> 100 µM
same,TGI,[46],> 100 µM
same,TGI,[47],> 100 µM
same,TGI,[48],> 100 µM
same,TGI,[49],> 100 µM
same,TGI,[50],> 100 µM
same,TGI,[51],> 100 µM
same,TGI,[52],> 100 µM
same,TGI,[53],> 100 µM
same,TGI,[54],> 100 µM
same,TGI,[55],> 100 µM
